Results reported in ChEMBL document CHEMBL1201862, “PubChem BioAssay data set” (2004).
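Growth conditions: 96-well plates. Treatment: test compound, 48 hours, 5 concentrations. Analysis: linear interpolation between bracketing concentrations; unreached endpoints set to highest concentration. Here, GI50 denotes the concentration required for 50% inhibition of growth.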 Active and inactive are the calls of the source. No stated cut-off is given here; in the data, active = GI50 up to about 1.1 µM and inactive = higher.

Columns and labels:
Experiment in all cases: NCI tumour cell line growth inhibition, 48 h
[1] = system: A549
[2] = system: ACHN
[3] = system: CAKI-1
[4] = system: CCRF-CEM
[5] = system: COLO 205
[6] = system: HCT-116
[7] = system: KM12
[8] = system: Malme-3M
[9] = system: NCI-H226
[10] = system: OVCAR-4
[11] = system: OVCAR-5
[12] = system: OVCAR-8
[13] = system: RPMI-8226
[14] = system: SF-268
[15] = system: SF-539
[16] = system: SN12C
[17] = system: SR
[18] = system: UO-31
[19] = system: SK-MEL-2

Measured: GI50

O=C(O)CCSC(=O)Nc1cccc2ccccc12
inactive: [1] > 100 µM | [2] > 100 µM | [3] > 100 µM | [4] > 100 µM | [5] > 100 µM | [6] > 100 µM | [7] > 100 µM | [8] > 100 µM | [9] > 100 µM | [10] > 100 µM | [11] > 100 µM | [12] > 100 µM | [13] > 100 µM | [14] > 100 µM | [15] > 100 µM | [16] > 100 µM | [17] > 100 µM | [18] > 100 µM

CC1CCC(O)C(C(O)CC2CC(=O)N(C)C(=O)C2)C1 (configuration not stated)
inactive: [1] > 100 µM | [2] > 100 µM | [3] > 100 µM | [4] > 100 µM | [5] > 100 µM | [6] > 100 µM | [7] > 100 µM | [8] > 100 µM | [9] > 100 µM | [10] > 100 µM | [11] > 100 µM | [12] > 100 µM | [13] > 100 µM | [14] > 100 µM | [15] > 100 µM | [16] > 100 µM | [17] > 100 µM | [18] > 100 µM

C=C(C)C1CCC2(C)CC1c1c(c(C)cc3c1[nH]c1ccccc13)O2 (configuration not stated)
inactive: [1] > 25 µM | [2] > 25 µM | [4] 24.3 µM | [5] > 25 µM | [6] > 25 µM | [7] > 25 µM | [8] > 25 µM | [9] 16.7 µM | [10] 11.7 µM | [11] > 25 µM | [12] > 25 µM | [13] > 25 µM | [14] > 25 µM | [15] > 25 µM | [19] > 25 µM | [16] > 25 µM | [17] > 25 µM | [18] 12.6 µM

C/C(CN1C(=O)c2ccccc2C1=O)=N\NS(C)(=O)=O
inactive: [1] > 100 µM | [2] > 100 µM | [3] > 100 µM | [4] > 100 µM | [5] > 100 µM | [6] > 100 µM | [7] > 100 µM | [8] > 100 µM | [9] > 100 µM | [10] > 100 µM | [11] > 100 µM | [12] > 100 µM | [13] > 100 µM | [14] > 100 µM | [15] > 100 µM | [19] > 100 µM | [16] > 100 µM | [18] > 100 µM

CCOC(=O)C(C)(c1c(C)[nH]c2ccccc12)c1c(C)[nH]c2ccccc12
inactive: [1] 19 µM | [2] 19.5 µM | [3] 14.3 µM | [4] 17.9 µM | [6] 12.5 µM | [7] 14.2 µM | [8] 17.3 µM | [9] 13.5 µM | [10] 14.9 µM | [11] 19.6 µM | [12] 26.8 µM | [13] 16.8 µM | [15] 18.7 µM | [19] 18.8 µM | [18] 12.5 µM

CCO/C=C\C12CCCC1NC(c1ccccc1)(c1ccccc1)O2 (configuration not stated)
inactive: [1] 32.8 µM | [2] 30.3 µM | [3] 23.3 µM | [4] 21.5 µM | [6] 30.7 µM | [7] 35.7 µM | [8] 25.9 µM | [9] 43.8 µM | [10] 35.8 µM | [11] 16.5 µM | [12] 39.2 µM | [14] 35.8 µM | [15] 25.3 µM | [19] 23.2 µM | [16] 25.7 µM | [18] 28.8 µM

C=CCC1([C@H](C)[C@@H](OC(C)=O)c2cc(OC)c(OC)c(OC)c2)C[C@@H](OC)CCC1=O (some centres not stated)
inactive: [1] 27.7 µM | [2] 19.8 µM | [3] 70.8 µM | [4] 3.3 µM | [5] 19.1 µM | [6] 13.1 µM | [7] 16.4 µM | [8] 17.2 µM | [9] 22.5 µM | [10] 25.5 µM | [12] 17 µM | [13] 10.8 µM | [14] 13.7 µM | [15] 16.4 µM | [19] 15.3 µM | [16] 17.7 µM | [17] 22.3 µM

O=C(Cc1ccccc1)NN1C(=O)C(Cl)C1c1ccc(O)cc1 (configuration not stated)
inactive: [1] > 100 µM | [2] > 100 µM | [3] > 100 µM | [4] > 100 µM | [5] > 100 µM | [6] > 100 µM | [7] > 100 µM | [8] > 100 µM | [9] > 100 µM | [11] > 100 µM | [12] > 100 µM | [13] > 100 µM | [14] > 100 µM | [19] > 100 µM | [16] > 100 µM | [17] 43.1 µM | [18] 64.7 µM
